Numbers after ± are expanded uncertainties.
Test: xn = mol fraction of the nth substance listed
Conditions: Liquid; for mass density: Vibrating tube method; for viscosity: Concentric cylinders viscometry

For `Cc1ccc(C)c(C)c1` [1,2,4-trimethylbenzene] + CCC(C)O, the mass density (273.15 K, 60000 kPa, x2 = 0.1) was 917.1 ± 0.7 kg/m3, the mass density (273.15 K, 60000 kPa, x2 = 0.1989) was 911.9 ± 0.7 kg/m3 and the mass density (273.15 K, 60000 kPa, x2 = 0.3011) was 906.2 ± 0.8 kg/m3. It also gave a mass density (273.15 K, 60000 kPa, x2 = 0.4002) of 900.7 ± 0.8 kg/m3, a mass density (273.15 K, 60000 kPa, x2 = 0.5001) of 894.6 ± 0.8 kg/m3 and a mass density (273.15 K, 60000 kPa, x2 = 0.5997) of 888.3 ± 0.8 kg/m3. For the same compound, the mass density (273.15 K, 60000 kPa, x2 = 0.6999) was 881.3 ± 0.8 kg/m3, the mass density (273.15 K, 60000 kPa, x2 = 0.7999) was 873.8 ± 0.8 kg/m3 and the mass density (273.15 K, 60000 kPa, x2 = 0.9) was 865.5 ± 0.8 kg/m3. The mass density (273.15 K, 70000 kPa, x2 = 0) was 926.2 ± 0.7 kg/m3, the mass density (273.15 K, 70000 kPa, x2 = 0.1) was 921.5 ± 0.8 kg/m3 and the mass density (273.15 K, 70000 kPa, x2 = 0.1989) was 916.2 ± 0.8 kg/m3. The mass density (273.15 K, 70000 kPa, x2 = 0.3011) was 910.7 ± 0.8 kg/m3, the mass density (273.15 K, 70000 kPa, x2 = 0.4002) was 905.2 ± 0.8 kg/m3 and the mass density (273.15 K, 70000 kPa, x2 = 0.5001) was 899.2 ± 0.8 kg/m3. For the same compound, the mass density (273.15 K, 70000 kPa, x2 = 0.5997) was 892.8 ± 0.8 kg/m3, the mass density (273.15 K, 70000 kPa, x2 = 0.6999) was 886 ± 0.8 kg/m3 and the mass density (273.15 K, 70000 kPa, x2 = 0.7999) was 878.4 ± 0.8 kg/m3. The mass density (273.15 K, 70000 kPa, x2 = 0.9) was 870.2 ± 0.8 kg/m3, the mass density (273.15 K, 80000 kPa, x2 = 0) was 930.3 ± 0.8 kg/m3 and the mass density (273.15 K, 80000 kPa, x2 = 0.1) was 925.7 ± 0.8 kg/m3. The mass density (273.15 K, 80000 kPa, x2 = 0.1989) was 920.6 ± 0.8 kg/m3, the mass density (273.15 K, 80000 kPa, x2 = 0.3011) was 915 ± 0.8 kg/m3 and the mass density (273.15 K, 80000 kPa, x2 = 0.4002) was 909.6 ± 0.8 kg/m3. It also gave a mass density (273.15 K, 80000 kPa, x2 = 0.5001) of 903.5 ± 0.8 kg/m3, a mass density (273.15 K, 80000 kPa, x2 = 0.5997) of 897.2 ± 0.8 kg/m3 and a mass density (273.15 K, 80000 kPa, x2 = 0.6999) of 890.3 ± 0.8 kg/m3. The mass density (273.15 K, 80000 kPa, x2 = 0.7999) was 882.8 ± 0.8 kg/m3, the mass density (273.15 K, 80000 kPa, x2 = 0.9) was 874.6 ± 0.8 kg/m3 and the mass density (273.15 K, 90000 kPa, x2 = 0) was 934.2 ± 0.8 kg/m3. It also gave a mass density (273.15 K, 90000 kPa, x2 = 0.1) of 929.8 ± 0.8 kg/m3, a mass density (273.15 K, 90000 kPa, x2 = 0.1989) of 924.7 ± 0.8 kg/m3 and a mass density (273.15 K, 90000 kPa, x2 = 0.3011) of 919.1 ± 0.8 kg/m3. For the same compound, the mass density (273.15 K, 90000 kPa, x2 = 0.4002) was 913.7 ± 0.8 kg/m3, the mass density (273.15 K, 90000 kPa, x2 = 0.5001) was 907.7 ± 0.8 kg/m3 and the mass density (273.15 K, 90000 kPa, x2 = 0.5997) was 901.4 ± 0.8 kg/m3. For the same compound, the mass density (273.15 K, 90000 kPa, x2 = 0.6999) was 894.6 ± 0.8 kg/m3, the mass density (273.15 K, 90000 kPa, x2 = 0.7999) was 887.1 ± 0.8 kg/m3 and the mass density (273.15 K, 90000 kPa, x2 = 0.9) was 878.9 ± 0.8 kg/m3. For the same compound, the mass density (273.15 K, 100000 kPa, x2 = 0) was 938 ± 0.8 kg/m3, the mass density (273.15 K, 100000 kPa, x2 = 0.1) was 933.7 ± 0.8 kg/m3 and the mass density (273.15 K, 100000 kPa, x2 = 0.1989) was 928.6 ± 0.8 kg/m3. For the same compound, the mass density (273.15 K, 100000 kPa, x2 = 0.3011) was 923.1 ± 0.8 kg/m3, the mass density (273.15 K, 100000 kPa, x2 = 0.4002) was 917.7 ± 0.8 kg/m3 and the mass density (273.15 K, 100000 kPa, x2 = 0.5001) was 911.7 ± 0.8 kg/m3. It also gave a mass density (273.15 K, 100000 kPa, x2 = 0.5997) of 905.5 ± 0.8 kg/m3, a mass density (273.15 K, 100000 kPa, x2 = 0.6999) of 898.7 ± 0.8 kg/m3 and a mass density (273.15 K, 100000 kPa, x2 = 0.7999) of 891.2 ± 0.8 kg/m3. The mass density (273.15 K, 100000 kPa, x2 = 0.9) was 883 ± 0.9 kg/m3, the mass density (273.15 K, 110000 kPa, x2 = 0) was 941.7 ± 0.8 kg/m3 and the mass density (273.15 K, 110000 kPa, x2 = 0.1) was 937.6 ± 0.8 kg/m3. The mass density (273.15 K, 110000 kPa, x2 = 0.1989) was 932.5 ± 0.8 kg/m3, the mass density (273.15 K, 110000 kPa, x2 = 0.3011) was 927 ± 0.8 kg/m3 and the mass density (273.15 K, 110000 kPa, x2 = 0.4002) was 921.6 ± 0.8 kg/m3. The mass density (273.15 K, 110000 kPa, x2 = 0.5001) was 915.7 ± 0.8 kg/m3, the mass density (273.15 K, 110000 kPa, x2 = 0.5997) was 909.4 ± 0.8 kg/m3 and the mass density (273.15 K, 110000 kPa, x2 = 0.6999) was 902.5 ± 0.8 kg/m3. It also gave a mass density (273.15 K, 110000 kPa, x2 = 0.7999) of 895.1 ± 0.9 kg/m3, a mass density (273.15 K, 110000 kPa, x2 = 0.9) of 887 ± 0.9 kg/m3 and a mass density (273.15 K, 120000 kPa, x2 = 0) of 945.2 ± 0.8 kg/m3. For the same compound, the mass density (273.15 K, 120000 kPa, x2 = 0.1) was 941.3 ± 0.8 kg/m3, the mass density (273.15 K, 120000 kPa, x2 = 0.1989) was 936.2 ± 0.8 kg/m3 and the mass density (273.15 K, 120000 kPa, x2 = 0.3011) was 930.8 ± 0.8 kg/m3. For the same compound, the mass density (273.15 K, 120000 kPa, x2 = 0.4002) was 925.3 ± 0.8 kg/m3, the mass density (273.15 K, 120000 kPa, x2 = 0.5001) was 919.5 ± 0.8 kg/m3 and the mass density (273.15 K, 120000 kPa, x2 = 0.5997) was 913.2 ± 0.8 kg/m3. The mass density (273.15 K, 120000 kPa, x2 = 0.6999) was 906.4 ± 0.8 kg/m3, the mass density (273.15 K, 120000 kPa, x2 = 0.7999) was 899 ± 0.9 kg/m3 and the mass density (273.15 K, 120000 kPa, x2 = 0.9) was 890.8 ± 0.9 kg/m3. The mass density (273.15 K, 130000 kPa, x2 = 0) was 948.6 ± 0.8 kg/m3, the mass density (273.15 K, 130000 kPa, x2 = 0.1) was 944.9 ± 0.8 kg/m3 and the mass density (273.15 K, 130000 kPa, x2 = 0.1989) was 939.9 ± 0.8 kg/m3. The mass density (273.15 K, 130000 kPa, x2 = 0.3011) was 934.4 ± 0.8 kg/m3, the mass density (273.15 K, 130000 kPa, x2 = 0.4002) was 929 ± 0.8 kg/m3 and the mass density (273.15 K, 130000 kPa, x2 = 0.5001) was 923.2 ± 0.8 kg/m3. It also gave a mass density (273.15 K, 130000 kPa, x2 = 0.5997) of 916.9 ± 0.8 kg/m3, a mass density (273.15 K, 130000 kPa, x2 = 0.6999) of 910.1 ± 0.9 kg/m3 and a mass density (273.15 K, 130000 kPa, x2 = 0.7999) of 902.7 ± 0.9 kg/m3. The mass density (273.15 K, 130000 kPa, x2 = 0.9) was 894.6 ± 0.9 kg/m3, the mass density (273.15 K, 140000 kPa, x2 = 0) was 952 ± 0.8 kg/m3 and the mass density (273.15 K, 140000 kPa, x2 = 0.1) was 948.2 ± 0.8 kg/m3. The mass density (273.15 K, 140000 kPa, x2 = 0.1989) was 943.3 ± 0.8 kg/m3, the mass density (273.15 K, 140000 kPa, x2 = 0.3011) was 937.6 ± 0.8 kg/m3 and the mass density (273.15 K, 140000 kPa, x2 = 0.4002) was 932.3 ± 0.8 kg/m3. The mass density (273.15 K, 140000 kPa, x2 = 0.5001) was 926.7 ± 0.8 kg/m3, the mass density (273.15 K, 140000 kPa, x2 = 0.5997) was 920.4 ± 0.8 kg/m3 and the mass density (273.15 K, 140000 kPa, x2 = 0.6999) was 913.4 ± 0.9 kg/m3. For the same compound, the mass density (273.15 K, 140000 kPa, x2 = 0.7999) was 906 ± 0.9 kg/m3, the mass density (273.15 K, 140000 kPa, x2 = 0.9) was 897.9 ± 0.9 kg/m3 and the viscosity (293.15 K, 100 kPa, x2 = 0) was 0.888 ± 0.019 mPa·s. The viscosity (293.15 K, 100 kPa, x2 = 0.1001) was 0.885 ± 0.019 mPa·s, the viscosity (293.15 K, 100 kPa, x2 = 0.2261) was 0.909 ± 0.019 mPa·s and the viscosity (293.15 K, 100 kPa, x2 = 0.3) was 0.935 ± 0.02 mPa·s. It also gave a viscosity (293.15 K, 100 kPa, x2 = 0.3966) of 1.013 ± 0.021 mPa·s, a viscosity (293.15 K, 100 kPa, x2 = 0.5298) of 1.121 ± 0.024 mPa·s and a viscosity (293.15 K, 100 kPa, x2 = 0.6001) of 1.25 ± 0.026 mPa·s. For the same compound, the viscosity (293.15 K, 100 kPa, x2 = 0.7001) was 1.48 ± 0.031 mPa·s, the viscosity (293.15 K, 100 kPa, x2 = 0.7997) was 1.85 ± 0.038 mPa·s and the viscosity (293.15 K, 100 kPa, x2 = 0.9001) was 2.47 ± 0.051 mPa·s. For the same compound, the mass density (293.15 K, 100 kPa, x2 = 0) was 875.1 ± 0.7 kg/m3 and the mass density (293.15 K, 100 kPa, x2 = 0.1) was 869.3 ± 0.7 kg/m3.
